Results reported in patent US20230096028A1, “BICYCLIC HETEROCYCLYL COMPOUNDS AND USES THEREOF” (Revolution Medicines, Inc., priority 2019, published 2023).
Where two headings read alike, the source gives them in different places.

Key:
[1] = target: T1, SOS1 catalytic domain (residues 564-1049) (Homo sapiens, UniProt Q07889); assay: Potency Assay: binding affinity to SOS1 using Surface Plasmon Resonance (SPR); set-up: SOS1 catalytic domain (residues 564-1049) immobilized on a sensor chip; conditions: immobilized SOS1 catalytic domain (residues 564-1049), read-out: SOS1 SPR Equilibrium Kd
T1 sequence (Q07889 564-1049): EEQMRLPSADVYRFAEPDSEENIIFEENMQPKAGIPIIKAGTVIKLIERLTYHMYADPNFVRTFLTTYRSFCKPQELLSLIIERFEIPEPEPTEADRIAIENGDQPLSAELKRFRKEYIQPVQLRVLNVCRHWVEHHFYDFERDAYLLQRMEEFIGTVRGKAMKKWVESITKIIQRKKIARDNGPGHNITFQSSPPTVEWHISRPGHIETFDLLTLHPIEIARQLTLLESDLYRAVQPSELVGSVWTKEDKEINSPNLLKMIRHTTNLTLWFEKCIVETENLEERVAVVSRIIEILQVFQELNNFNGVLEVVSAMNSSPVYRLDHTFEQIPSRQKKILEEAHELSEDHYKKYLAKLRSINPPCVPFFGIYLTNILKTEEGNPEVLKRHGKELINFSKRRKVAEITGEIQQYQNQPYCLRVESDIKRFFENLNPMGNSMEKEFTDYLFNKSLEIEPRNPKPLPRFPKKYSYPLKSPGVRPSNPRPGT
Summary of the method: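 Avi-tagged SOS1 catalytic domain captured on streptavidin chip (~6000 RU) in 0.01 M HEPES, 0.15 M NaCl, 0.05% P20. Compound dilution series flowed at 50 μL/min for association, then buffer for dissociation, with double reference subtraction. Kd derived from end-of-association binding response plotted against concentration.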

[2] = target: T1, SOS1 catalytic domain (residues 564-1049); assay: Mode of Action Assay: inhibition of SOS1 nucleotide exchange activity (SOS1 TR-FRET IC50 Assay)
[3] = test system: PC-9 cells (EGFR Ex19Del); assay: Potency Assay: pERK (SOS1 pERK IC50 Assay, AlphaLISA SureFire Ultra p-ERK1/2); assay type: cell-based; conditions: Homo sapiens, read-out: SOS1 pERK IC50
Summary of the method: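 PC-9 (EGFR Ex19Del) cells plated overnight, then treated 1 h at 37° C. with 10-point 3-fold dilutions (top 10 μM final) in duplicate. Lysate pERK1/2 measured by AlphaLISA SureFire Ultra; IC50 from 4-parameter sigmoidal fit.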

[4] = PC-9 cells (EGFR Ex19Del), 1 hour incubation, AlphaLISA p-ERK1/2

| Compound | Kd [1] [nM] | IC50 [2] [nM] | IC50 [3, 4] [nM] | IC50 ([3]; PC-9, 1 h) [nM] |
| --- | --- | --- | --- | --- |
| C[C@@H](Nc1nc(CN2CCOCC2)nc2c1CN(C(=O)N1CCOCC1)C2)c1cc(N)cc(C(F)(F)F)c1 [Example 504, N-[(1R)-1-[3-amino-5-(trifluoromethyl)phenyl]ethyl]-2-[(morpholin-4-yl)-methyl]-6-(morpholine-4-carbonyl)-5H,6H,7H-pyrrolo[3,4-d]pyrimidin-4-amine] | > 400 | < 1000 | > 1000 |  |
| CCC(Nc1nc(Cl)nc2c1CN(C(=O)N1CCOCC1)C2)c1cc(N)cc(C(F)(F)F)c1 (stereo not drawn) [Example 470, N-{1-[3-amino-5-(trifluoromethyl)phenyl]propyl}-2-chloro-6-(morpholine-4-carbonyl)-5H,6H,7H-pyrrolo[3,4-d]pyrimidin-4-amine] | > 400 | < 1000 |  | < 1000 |
| CCc1nc2c(c(N[C@H](C)c3cc(N)cc(C(F)(F)F)c3)n1)CN(C(=O)N1CCOCC1)C2 [Example 128, N-[(1R)-1-[3-amino-5-(trifluoromethyl)phenyl]ethyl]-2-ethyl-6-(morpholine-4-carbonyl)-5H,6H,7H-pyrrolo[3,4-d]pyrimidin-4-amine] | < 400 | < 1000 | < 1000 |  |
| C[C@@H](Nc1nc(Cl)nc2c1CC(N1CC3(COC3)C1)CC2)c1cccc(C(F)(F)CO)c1 (stereo partly drawn) [Example 438] | < 400 | < 1000 | < 1000 |  |
| C[C@@H](Nc1nc(Cl)nc2c1CN(C(=O)N1CCOCC1)C2)c1cccc2c1COCC2(F)F [Example 523, 2-chloro-N-[(1R)-1-(4,4-difluoro-3,4-dihydro-1H-2-benzopyran-8-yl)ethyl]-6-(morpholine-4-carbonyl)-5H,6H,7H-pyrrolo[3,4-d]pyrimidin-4-amine] | < 400 | < 1000 |  | < 1000 |
| C[C@@H](Nc1nc(Cl)nc2c1CN(S(=O)(=O)C1CNC1)CC2)c1cc(N)cc(C(F)(F)F)c1 [Example 451] | < 400 | < 1000 | < 1000 |  |
| COCC1(S(=O)(=O)N2CCc3nc(Cl)nc(N[C@H](C)c4cc(N)cc(C(F)(F)F)c4)c3C2)CCC1 [Example 448, N-[(1R)-1-[3-amino-5-(trifluoromethyl)phenyl]ethyl]-2-chloro-6-{[1-(methoxymethyl)cyclobutyl]sulfonyl}-5H,6H,7H,8H-pyrido[4,3-d]pyrimidin-4-amine] | < 400 | < 1000 | > 1000 |  |
| C[C@@H](Nc1nc(Cl)nc2c1CN(S(=O)(=O)C1CCCNC1)C2)c1cc(N)cc(C(F)(F)F)c1 (stereo partly drawn) [Example 49] | < 400 | < 1000 | < 1000 |  |
| C[C@@H](Nc1nc(Cl)nc2c1C[C@H](N1CCOCC1)CC2)c1cccc(C(F)(F)CO)c1 [Example 437] | < 400 | < 1000 | < 1000 |  |
| C[C@@H](Nc1nc(Cl)nc2c1CN(S(=O)(=O)C1CC(F)(F)C1)CC2)c1cc(N)cc(C(F)(F)F)c1 [Example 456] | < 400 | < 1000 | < 1000 |  |
| C[C@@H](Nc1nc(Cl)nc2c1CN(C(=O)N1CCOCC1)C2)c1cccc(C(F)(F)C2COCCN2C)c1 (stereo partly drawn) [Example 460, (2-chloro-4-(((1R)-1-(3-(difluoro(4-methylmorpholin-3-yl)methyl)phenyl)ethyl)amino)-5,7-dihydro-6H-pyrrolo[3,4-d]pyrimidin-6-yl)(morpholino)methanone] | < 400 | < 1000 | < 1000 |  |
| C[C@@H](Nc1nc(Cl)nc2c1CN(S(=O)(=O)N1CCOCC1)CC2)c1cccc(C(F)(F)CO)c1 [Example 181] | < 400 | < 1000 | < 1000 |  |
| C[C@@H](Nc1nc(Cl)nc2c1CN(C(=O)c1ccncn1)CC2)c1cc(N)cc(C(F)(F)F)c1 [Example 233] | > 400 | > 1000 | > 1000 |  |
| C[C@@H](Nc1nc(Cl)nc2c1CN(C(=O)N1CC3CCC(C1)N3C)C2)c1cccc(C(F)F)c1F [Example 429] | < 400 | < 1000 | < 1000 |  |
| C[C@@H](Nc1nc(Cl)nc2c1CN(C(=O)C1(F)CCOCC1)C2)c1cc(N)cc(C(F)(F)F)c1 [Example 256] | < 400 | < 1000 | < 1000 |  |

Now from value to molecule, other results behind:

| Kd [1] [nM] | IC50 [2] [nM] | IC50 [3, 4] [nM] | Compound | IC50 ([3]; PC-9, 1 h) [nM] |
| --- | --- | --- | --- | --- |
| < 400 | < 1000 | < 1000 | C[C@@H](Nc1nc(Cl)nc2c1CN(C(=O)C1CNCCOC1)C2)c1cccc(C(F)F)c1F (stereo partly drawn) [Example 293] |  |
| < 400 | < 1000 | < 1000 | COC1(C(=O)N2Cc3nc(Cl)nc(N[C@H](C)c4cccc(C(F)F)c4F)c3C2)CN(C2COC2)C1 [Example 340] |  |
| < 400 | < 1000 | > 1000 | C[C@@H](Nc1nc(Cl)nc2c1CN(C(=O)C1CCNCC1)C2)c1cc(N)cc(C(F)(F)F)c1 [Example 270] |  |
| < 400 | < 1000 | < 1000 | C[C@@H](Nc1nc(Cl)nc2c1CN(C(=O)N1CCOCC1)C2)c1cccc(C(F)(F)F)c1 [Example 137, 2-chloro-6-(morpholine-4-carbonyl)-N-[(1R)-1-[3-(trifluoromethyl)phenyl]ethyl]-5H,6H,7H-pyrrolo[3,4-d]pyrimidin-4-amine] |  |
| < 400 | < 1000 | < 1000 | Cc1c([C@@H](C)Nc2nc(Cl)nc3c2CN(C(=O)N2CCOCC2)C3)cccc1C(F)(F)F [Example 477, 2-chloro-N-[(1R)-1-[2-methyl-3-(trifluoromethyl)phenyl]ethyl]-6-(morpholine-4-carbonyl)-5H,6H,7H-pyrrolo[3,4-d]pyrimidin-4-amine] |  |
| < 400 | < 1000 | < 1000 | C[C@@H](Nc1nc(Cl)nc2c1CN(C(=O)C1(C)COC1)C2)c1cc(N)cc(C(F)(F)F)c1 [Example 261] |  |
| < 400 | < 1000 | < 1000 | C[C@@H](Nc1nc(Cl)nc2c1CN(C(=O)C13CCN(CC1)C3)C2)c1cccc(C(F)F)c1F [Example 312] |  |
| < 400 | < 1000 | < 1000 | C[C@@H](Nc1nc(Cl)nc2c1C[C@@H](N1CCOCC1)CC2)c1cccc(C(F)F)c1F [Example 440] |  |
| < 400 | < 1000 | < 1000 | C[C@@H](Nc1nc(Cl)nc2c1CN(C(=O)[C@H]1CNCCO1)C2)c1cccc(C(F)(F)F)c1 [Example 281] |  |
| < 400 | < 1000 | < 1000 | C[C@@H](Nc1nc(Cl)nc2c1CN(C(=O)C1CCN1)C2)c1cccc(C(F)F)c1F (stereo partly drawn) [Example 286] |  |
| < 400 | < 1000 | < 1000 | CNC1(C(=O)N2Cc3nc(Cl)nc(N[C@H](C)c4cccc(C(F)F)c4F)c3C2)CCOCC1 [Example 333] |  |
| < 400 | < 1000 | < 1000 | C[C@@H](Nc1nc(Cl)nc2c1CN(C(=O)[C@H]1C[C@@H](O)C1)C2)c1cc(N)cc(C(F)(F)F)c1 [Example 260] |  |
| < 400 | < 1000 | < 1000 | C[C@@H](Nc1nc(Cl)nc2c1CN(C(=O)N1CCOCC1)C2)c1cccc2c1OCC2(F)F [Example 466, [2-chloro-4-[[(1R)-1-(3,3-difluoro-2H-benzofuran-7-yl)ethyl]amino]-5,7-dihydropyrrolo[3,4-d]pyrimidin-6-yl]-morpholino-methanone] |  |
| < 400 | < 1000 | < 1000 | C[C@@H](Nc1nc(Cl)nc2c1CN(C(=O)N1CCN(C)CC(F)(F)C1)C2)c1cccc(C(F)F)c1F [Example 419] |  |
| < 400 | < 1000 | < 1000 | C[C@@H](Nc1nc(Cl)nc2c1CN(C(=O)C1CN(C3CCOC3)C1)C2)c1cccc(C(F)F)c1F (stereo partly drawn) [Example 295] |  |
| < 400 | < 1000 | < 1000 | COC1(C(=O)N2Cc3nc(Cl)nc(N[C@H](C)c4cccc(C(F)F)c4F)c3C2)CNC1 [Example 302] |  |
| < 400 | < 1000 | < 1000 | C[C@@H](Nc1nc(Cl)nc2c1CN(C(=O)N1CCN(C3COC3)CC1)C2)c1cccc(C(F)F)c1F [Example 383] |  |
| < 400 | < 1000 | < 1000 | C[C@@H](Nc1nc(Cl)nc2c1CN(C(=O)N1CCC(O)CC1)C2)c1cccc(C(F)F)c1F [Example 395] |  |
| < 400 | < 1000 | > 1000 | C[C@@H](Nc1nc(Cl)nc2c1CN(C(=O)C1CCN3CCOCC13)C2)c1cccc(C(F)F)c1F (stereo partly drawn) [Example 318] |  |
| < 400 | < 1000 | < 1000 | C[C@@H](Nc1nc(Cl)nc2c1CN(C(=O)CN1CCN(C)CC1)C2)c1cccc(C(F)F)c1F [Example 283] |  |
